A short description of data set [1]: Cytotoxicity against MT-4 cells without virus (Trypane Blue staining, viable cell count). The data set is classed as cell-based. To be noted: human, no virus added, read-out: CC50 (50% cytotoxicity). The method, then: Furthermore, cytotoxicity of Compound (lH) and Compound (lP) against MT-4 cells was examined without adding virus. After staining with […] Blue, viable cells were counted. Based on the count of viable cells where the chemical was added and where no chemical was added, a degree of inhibition was calculated. A concentration of the chemical and the degree of inhibition were plotted on semilogarithmic paper to determine 50% cytotoxicity (CC50 value).

The next data set has as its system AIDS virus. The data set can be described thus: Anti-AIDS viral activity: virus antigen in infected MT-4 cells by indirect fluorescent antibody method. Format: cell-based. To be noted: Human immunodeficiency virus 1, MT4, compound added 2 hours before virus, 10^3 to 10^4 infection units, cultured 4 days, read-out: EC50 (50% infection inhibitory concentration). The method, then: After 0.5 ml of cell suspension prepared from MT-4 cells in 1×10^5 /ml was charged in a 24 well tray, 50 μl of a solution containing a predetermined quantity of Compound (lH) or Compound (lP) was added to the suspension. After culturing at 37° C. for 2 hours in 5% (v/v) carbon dioxide incubator, 10^3 to 10^4 infection units of AIDS virus were added and cultured for 4 days. Then, a part of the culture medium was applied onto a slide glass and immobilized with acetone, after which development of virus antigen was observed by indirect fluorescent antibody method. As the primary antibody of the fluorescent antibody method, a serum of AIDS patient was used. As its secondary antibody, FITC-labelled anti-human IgG antibody was used. Based on a proportion of the infected cells and non-infected cells where the chemical was added and where no chemical was added, a rate of infection was calculated. A concentration of the chemical and the rate of infection were plotted on semilogarithmic paper to determine 50% infection inhibitory concentration (EC50 value).

Converted amounts (≈) assume the structure as drawn.

In general, CC50 refers to the concentration that lowers cell viability or growth by half.

Regarding `Nc1nnnc2c1ncn2[C@@H]1O[C@H](CO)[C@H]1CO` [Compound (1H)], the CC50 in data set [1] is > 100 µg/mL. The EC50 in the data set on AIDS virus amounted to 0.035 µg/mL (≈ 0.139 µM).
On to `Nc1nnnc2c1ncn2[C@@H]1O[C@H](COP(=O)(O)O)[C@H]1CO` [Compound (1P)], for which the CC50 in data set [1] is > 100 µg/mL. In addition, the EC50 with AIDS virus is 0.14 µg/mL (≈ 0.421 µM).

The values above are taken from patent publication US5028598A, “Oxetanocin derivatives and their salts as well as use thereof” (Nippon Kayaku Kabushiki Kaisha, priority 1989, dated 1991).
